17 compounds from patent US20180099931A1 (AbbVie S.à.r.l., priority 2016, published 2018) can be followed below.

Like-named read-outs stand apart in the source and are kept apart here.

The target of this assay is T1, F508delCFTR (Homo sapiens, UniProt P13569, DEL508-508).
T1 construct: expressed in transfected cells; host or cells: CFBE41o- human lung-derived epithelial cells (CFBE4lo-F508delCFTR-HRP), doxycycline-inducible
Put plainly: Cell Surface Expression-Horse Radish Peroxidase (CSE-HRP) Assay.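 As to Maximum % activity (with co-corrector): co-corrector and positive control are both the same reference corrector at 2 µM.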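 As to Maximum % activity (without co-corrector): percent of the 2 µM on-plate positive control corrector response above DMSO.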 Conditions: for Maximum % activity (with co-corrector): with co-corrector (2 μM); for Maximum % activity (with co-corrector) / Emax: maximum at any tested concentration, normalized to on-plate positive control; for Emax: without co-corrector, read-out: Maximum % activity (without co-corrector). It is filed as cell-based.

Setting [1] is: test compound without co-corrector, read-out: EC50 (without co-corrector).
Where [2] appears, read: with co-corrector (2 μM of 3-[(2R,4R)-4-({[1-(2,2-difluoro-1,3-benzodioxol-5-yl)cyclopropyl]carbonyl}amino)-7-methoxy-3,4-dihydro-2H-chromen-2-yl]benzoic acid), read-out: EC50 (with co-corrector).

T1 sequence (P13569 with tags, fused parts or gaps DEL508-508): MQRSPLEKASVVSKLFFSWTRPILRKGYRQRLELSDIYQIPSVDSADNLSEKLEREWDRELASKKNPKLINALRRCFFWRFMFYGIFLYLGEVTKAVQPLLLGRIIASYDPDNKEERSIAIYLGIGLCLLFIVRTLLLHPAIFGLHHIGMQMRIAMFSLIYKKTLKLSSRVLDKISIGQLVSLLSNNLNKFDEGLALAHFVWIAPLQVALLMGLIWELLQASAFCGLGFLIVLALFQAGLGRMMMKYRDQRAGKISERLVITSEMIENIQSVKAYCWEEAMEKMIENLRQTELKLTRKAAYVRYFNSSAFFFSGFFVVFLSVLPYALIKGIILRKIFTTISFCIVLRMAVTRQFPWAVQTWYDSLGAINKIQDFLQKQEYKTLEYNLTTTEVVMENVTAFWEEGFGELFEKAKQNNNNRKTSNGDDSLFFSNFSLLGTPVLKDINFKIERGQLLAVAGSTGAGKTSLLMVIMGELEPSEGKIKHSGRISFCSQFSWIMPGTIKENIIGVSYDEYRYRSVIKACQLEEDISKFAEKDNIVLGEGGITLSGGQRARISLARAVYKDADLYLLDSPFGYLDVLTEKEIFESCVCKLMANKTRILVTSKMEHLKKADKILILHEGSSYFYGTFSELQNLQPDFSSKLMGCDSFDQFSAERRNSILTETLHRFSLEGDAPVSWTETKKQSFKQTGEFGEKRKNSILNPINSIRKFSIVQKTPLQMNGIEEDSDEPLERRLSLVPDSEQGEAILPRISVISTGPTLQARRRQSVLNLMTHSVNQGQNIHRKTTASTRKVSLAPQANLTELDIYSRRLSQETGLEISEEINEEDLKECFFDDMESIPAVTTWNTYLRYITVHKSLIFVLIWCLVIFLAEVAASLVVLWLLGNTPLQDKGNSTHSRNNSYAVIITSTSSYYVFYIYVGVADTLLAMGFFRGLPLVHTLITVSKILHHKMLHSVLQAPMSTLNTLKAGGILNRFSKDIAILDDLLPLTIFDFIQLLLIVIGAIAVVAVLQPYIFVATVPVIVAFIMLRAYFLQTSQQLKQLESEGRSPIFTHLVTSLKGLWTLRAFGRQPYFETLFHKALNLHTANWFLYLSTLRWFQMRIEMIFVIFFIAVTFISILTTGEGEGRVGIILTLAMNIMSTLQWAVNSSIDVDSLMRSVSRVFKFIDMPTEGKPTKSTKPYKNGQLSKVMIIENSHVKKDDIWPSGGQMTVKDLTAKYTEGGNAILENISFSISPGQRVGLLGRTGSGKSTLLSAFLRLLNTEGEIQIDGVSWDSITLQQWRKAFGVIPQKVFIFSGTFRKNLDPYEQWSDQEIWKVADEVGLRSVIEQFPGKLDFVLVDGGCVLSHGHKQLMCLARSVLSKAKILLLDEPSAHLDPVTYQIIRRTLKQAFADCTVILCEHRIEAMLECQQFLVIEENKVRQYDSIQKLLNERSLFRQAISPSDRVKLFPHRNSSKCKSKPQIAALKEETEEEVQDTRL

By EC50 is commonly meant the concentration needed to bring the measured effect to its halfway point. Take `COc1ccc(C(C)(C)C)cc1CN[C@H]1[C@H](C(C)(C)C)[C@@H](C(=O)O)N(C(=O)C2CCCCC2)[C@H]1c1cccnc1OC` [Example 17, (2S,3S,4S,5S)-3-tert-butyl-4-{[(5-tert-butyl-2-methoxyphenyl)methyl]amino}-1-(cyclohexanecarbonyl)-5-(2-methoxypyridin-3-yl)pyrrolidine-2-carboxylic acid]: the “Maximum % activity (with co-corrector)” value is “+++ (≥350)” and the Emax was > 200%. Moreover, under setting [1], the EC50 is 1 to 10 µM. The EC50 under setting [2] was < 1 µM.

As to `COc1ccc(C(C)(C)C)cc1CN[C@H]1[C@H](C(C)(C)C)[C@@H](C(=O)O)N(C(=O)[C@@H]2CCCCO2)[C@H]1c1cccnc1N(C)C` [Example 18, (2S,3S,4S,5S)-3-tert-butyl-4-{[(5-tert-butyl-2-methoxyphenyl)methyl]amino}-5-[2-(dimethylamino)pyridin-3-yl]-1-[(2S)-oxane-2-carbonyl]pyrrolidine-2-carboxylic acid], the “Maximum % activity (with co-corrector)” value is on record as “+++ (≥350)” and the Emax was > 200%. Besides, the EC50 under setting [1] fell in the range of 1 to 10 µM. Under setting [2], the EC50 fell in the range of 1 to 10 µM.

For the compound `COc1ccc(C(C)(C)C)cc1CN[C@H]1[C@H](C(C)(C)C)[C@@H](C(=O)O)N(C(=O)[C@H]2CCCCO2)[C@H]1c1cccnc1N(C)C` [Example 19, (2S,3S,4S,5S)-3-tert-butyl-4-{[(5-tert-butyl-2-methoxyphenyl)methyl]amino}-5-[2-(dimethylamino)pyridin-3-yl]-1-[(2R)-oxane-2-carbonyl]pyrrolidine-2-carboxylic acid], the “Maximum % activity (with co-corrector)” value is recorded as “+++ (≥350)” and the Emax is > 200%. In addition, under setting [1], the EC50 fell in the range of 1 to 10 µM. Further, the EC50 under setting [2] lay within 1 to 10 µM.

Turning to `COc1ccc(C(C)(C)C)cc1CN[C@H]1[C@H](C(C)(C)C)[C@@H](C(=O)O)N(C(=O)CC2CCCCO2)[C@H]1c1ccccc1` (stereo partly drawn) [Example 20, (2S,3S,4S,5S)-3-tert-butyl-4-{[(5-tert-butyl-2-methoxyphenyl)methyl]amino}-1-[(oxan-2-yl)acetyl]-5-phenylpyrrolidine-2-carboxylic acid], the “Maximum % activity (with co-corrector)” value is listed as “+++ (≥350)” and the Emax was 100 to 200%. Further, under setting [1], the EC50 was in the range of 1 to 10 µM. Moreover, the EC50 under setting [2] fell in the range of 1 to 10 µM.

Turning to `COc1ncc(C(F)(F)F)cc1CN[C@H]1[C@H](C(C)(C)C)[C@@H](C(=O)O)N(C(=O)[C@@H]2CCCCO2)[C@H]1c1ccccc1` [Example 21, (2S,3S,4S,5S)-3-tert-butyl-4-({[2-methoxy-5-(trifluoromethyl)pyridin-3-yl]methyl}amino)-1-[(2S)-oxane-2-carbonyl]-5-phenylpyrrolidine-2-carboxylic acid], the “Maximum % activity (with co-corrector)” value is listed as “+++ (≥350)” and the Emax fell in the range of 100 to 200%. For the same compound, the EC50 under setting [1] lay within 1 to 10 µM. Moreover, the EC50 under setting [2] is 1 to 10 µM.

`COc1ncc(C(F)(F)F)cc1CN[C@H]1[C@H](C(C)(C)OC)[C@@H](C(=O)O)N(C(=O)C2CCCCC2)[C@H]1c1ccccc1` [Example 22, (2S,3S,4S,5S)-1-(cyclohexanecarbonyl)-3-(2-methoxypropan-2-yl)-4-({[2-methoxy-5-(trifluoromethyl)pyridin-3-yl]methyl}amino)-5-phenylpyrrolidine-2-carboxylic acid]: the “Maximum % activity (with co-corrector)” value is recorded as “+++ (≥350)” and the Emax is 100 to 200%. The EC50 under setting [1] is < 1 µM. For the same compound, the EC50 under setting [2] is < 1 µM.

On to `COc1ccc(C(C)(C)C)cc1CN[C@H]1[C@H](C(C)(C)C)[C@@H](C(=O)O)N(C(=O)C2CCCCC2)[C@H]1c1ccccc1F` [Example 24, (2S,3S,4S,5S)-3-tert-butyl-4-{[(5-tert-butyl-2-methoxyphenyl)methyl]amino}-1-(cyclohexanecarbonyl)-5-(2-fluorophenyl)pyrrolidine-2-carboxylic acid], for which the “Maximum % activity (with co-corrector)” value is listed as “+++ (≥350)” and the Emax is > 200%. The EC50 under setting [1] is < 1 µM. Further, under setting [2], the EC50 was < 1 µM.

Consider `COc1ncc(-c2ccccc2)cc1CN[C@H]1[C@H](C(C)(C)C)[C@@H](C(=O)O)N(C(=O)C2CCCCC2)[C@H]1c1ccccc1` [Example 25, (2S,3S,4S,5S)-3-tert-butyl-1-(cyclohexanecarbonyl)-4-{[(2-methoxy-5-phenylpyridin-3-yl)methyl]amino}-5-phenylpyrrolidine-2-carboxylic acid], for which the “Maximum % activity (with co-corrector)” value is given as “+++ (≥350)” and the Emax was in the range of 100 to 200%. Further, the EC50 under setting [1] is < 1 µM. For the same compound, the EC50 under setting [2] is < 1 µM.

Take `COc1ncc(C(F)(F)F)cc1CN[C@H]1[C@H](C(C)(C)C)[C@@H](C(=O)O)N(C(=O)C2CCCCC2)[C@H]1c1ccc(F)cc1` [Example 26, (2S,3S,4S,5S)-3-tert-butyl-1-(cyclohexanecarbonyl)-5-(4-fluorophenyl)-4-({[2-methoxy-5-(trifluoromethyl)pyridin-3-yl]methyl}amino)pyrrolidine-2-carboxylic acid]: the “Maximum % activity (with co-corrector)” value is recorded as “+++ (≥350)” and the Emax fell in the range of 100 to 200%. The EC50 under setting [1] was < 1 µM. Also, the EC50 under setting [2] is < 1 µM.

For the compound `COc1ncc(C(C)(C)C)cc1CN[C@H]1[C@H](C(C)(C)C)[C@@H](C(=O)O)N(C(=O)C2CCCCC2)[C@H]1c1ccccc1` [Example 27, (2S,3S,4S,5S)-3-tert-butyl-4-{[(5-tert-butyl-2-methoxypyridin-3-yl)methyl]amino}-1-(cyclohexanecarbonyl)-5-phenylpyrrolidine-2-carboxylic acid], the “Maximum % activity (with co-corrector)” value is “+++ (≥350)” and the Emax is > 200%. In addition, the EC50 under setting [1] lay within 1 to 10 µM. Also, the EC50 under setting [2] was 1 to 10 µM.

As for `COc1nc(C(C)(C)C)ccc1CN[C@H]1[C@H](C(C)(C)C)[C@@H](C(=O)O)N(C(=O)C2CCCCC2)[C@H]1c1ccccc1` [Example 29, (2S,3S,4S,5S)-3-tert-butyl-4-{[(6-tert-butyl-2-methoxypyridin-3-yl)methyl]amino}-1-(cyclohexanecarbonyl)-5-phenylpyrrolidine-2-carboxylic acid], the “Maximum % activity (with co-corrector)” value was “+++ (≥350)” and the Emax was 100 to 200%. Moreover, the EC50 under setting [1] is < 1 µM. Further, the EC50 under setting [2] is < 1 µM.

`COc1ccc(C(C)(C)C)cc1CN[C@H]1[C@H](C(C)(C)C)[C@@H](C(=O)O)N(C(=O)[C@H]2CCCC(F)(F)C2)[C@H]1c1ccccc1` [Example 30, (2S,3S,4S,5S)-3-tert-butyl-4-{[(5-tert-butyl-2-methoxyphenyl)methyl]amino}-1-[(1S)-3,3-difluorocyclohexane-1-carbonyl]-5-phenylpyrrolidine-2-carboxylic acid]: the “Maximum % activity (with co-corrector)” value is reported as “+++ (≥350)” and the Emax is > 200%. For the same compound, under setting [1], the concentration giving a half-maximal response (EC50) was in the range of 1 to 10 µM. Further, the EC50 under setting [2] was 1 to 10 µM.

In the case of `COc1ccc(C(C)(C)C)cc1CN[C@H]1[C@H](C(C)(C)C)[C@@H](C(=O)O)N(C(=O)[C@@H]2CCCC(F)(F)C2)[C@H]1c1ccccc1` [Example 31, (2S,3S,4S,5S)-3-tert-butyl-4-{[(5-tert-butyl-2-methoxyphenyl)methyl]amino}-1-[(1R)-3,3-difluorocyclohexane-1-carbonyl]-5-phenylpyrrolidine-2-carboxylic acid], the “Maximum % activity (with co-corrector)” value is “+++ (≥350)” and the Emax was > 200%. Moreover, the EC50 under setting [1] is < 1 µM. For the same compound, the concentration giving a half-maximal response (EC50) under setting [2] was < 1 µM.

For the compound `COc1ccc(C(C)(C)C)cc1CN[C@H]1[C@H](C(C)(C)C)[C@@H](C(=O)O)N(C(=O)[C@@H](Cc2ccccc2)OC)[C@H]1c1ccccc1` [Example 32, (2S,3S,4S,5S)-3-tert-butyl-4-{[(5-tert-butyl-2-methoxyphenyl)methyl]amino}-1-[(2R)-2-methoxy-3-phenylpropanoyl]-5-phenylpyrrolidine-2-carboxylic acid], the “Maximum % activity (with co-corrector)” value was “+++ (≥350)” and the Emax is > 200%. Further, the EC50 under setting [1] is 1 to 10 µM. Under setting [2], the EC50 was < 1 µM.

For the compound `COc1ccc(C2(C(F)(F)F)CC2)cc1CN[C@H]1[C@H](C(C)(C)C)[C@@H](C(=O)O)N(C(=O)C2CCCCC2)[C@H]1c1ccccc1` [Example 33, (2S,3S,4S,5S)-3-tert-butyl-1-(cyclohexanecarbonyl)-4-[({2-methoxy-5-[1-(trifluoromethyl)cyclopropyl]phenyl}methyl)amino]-5-phenylpyrrolidine-2-carboxylic acid], the “Maximum % activity (with co-corrector)” value was “+++ (≥350)” and the Emax is > 200%. For the same compound, under setting [1], the EC50 fell in the range of 1 to 10 µM. Under setting [2], the EC50 is < 1 µM.

As to `COc1ccc(C(C)(C)C)cc1CN[C@H]1[C@H](C(C)(C)C)[C@@H](C(=O)O)N(C(=O)[C@@H]2CCCO2)[C@H]1c1ccccc1` [Example 34, (2S,3S,4S,5S)-3-tert-butyl-4-{[(5-tert-butyl-2-methoxyphenyl)methyl]amino}-1-[(2S)-oxolane-2-carbonyl]-5-phenylpyrrolidine-2-carboxylic acid], the “Maximum % activity (with co-corrector)” value was “+++ (≥350)” and the Emax is > 200%. Moreover, the EC50 under setting [1] lay in the range of 1 to 10 µM. The EC50 under setting [2] is 1 to 10 µM.

For the compound `CCCC1(O)CCC(C(=O)N2C(C(=O)O)C(C(C)(C)C)C(NCc3cc(C(C)(C)C)ccc3OC)C2c2ccccc2)CC1` [Example 35, (2S,3S,4S,5S)-3-tert-butyl-4-{[(5-tert-butyl-2-methoxyphenyl)methyl]amino}-1-(cis-4-hydroxy-4-propylcyclohexane-1-carbonyl)-5-phenylpyrrolidine-2-carboxylic acid], the “Maximum % activity (with co-corrector)” value is “+++ (≥350)” and the Emax was > 200%. Moreover, the EC50 under setting [1] was in the range of 1 to 10 µM. Moreover, the EC50 under setting [2] is < 1 µM.
